From patent US9540649B2, “Method for opening tight junctions” (The Provost, Fellows and Scholars of the College of the …, priority 2007, dated 2017) come the findings set out here.

Data set [1] concerns occludin. The data set is described as follows: Occludin immunohistochemistry in brain microvasculature after occludin siRNA. The class given is in vivo, C57/Bl-6 mice. The conditions noted are these: 48 hour time-point.
For a further data set, the system named is BBB. The data set is described as follows: BBB permeability (albumin, immunoglobulin, Hoechst) following suppression of occludin. The class given is in vivo, C57/Bl-6 mice. The conditions noted are these: for albumin extravasation, immunohistochemistry in brain vibratome sections: 24 hours post-injection; for passage of mouse immunoglobulins (IgG) into the brain: following suppression of occludin. From the text: The protocols used were identical to the protocols used in Example 1.

For the next data set, the system named is claudin-12. The data set can be described thus: Claudin-12 staining in brain microvasculature after claudin-12 siRNA. The class given is in vivo, C57/Bl-6 mice. The conditions noted are these: 48 hours post-injection; vs non-targeting control siRNA.
In the next data set the test system is claudin-1. The data set is described as follows: Western blot analysis of claudin-1 expression after hydrodynamic tail vein delivery of claudin-1 siRNA. The class given is in vivo, C57/Bl-6 mice.
The subject of data set [2] is occludin. The data set can be described thus: Western blot analysis of occludin expression after hydrodynamic tail vein delivery of occludin siRNA. The class given is in vivo, C57/Bl-6 mice.
The subject of a further data set is IMPDH−/− mice. The data set is described as follows: Electroretinographic analysis of IMPDH−/− mice after claudin-5 suppression and GTP injection. The class given is in vivo. The protocol:
IMPDH−/− mice that had received a hydrodynamic injection of siRNA targeting claudin-5 were dark-adapted overnight and prepared for electroretinography under dim red light. Pupillary dilation was carried out by installation of 1% cyclopentalate and 2.5% phenylephrine. Animals were anesthetized by intraperitoneal injection of ketamine (2.08 mg per 15 g body weight) and xylazine (0.21 mg per 15 g body weight). Once the animal was anaesthetized, GTP was injected intraperitoneally. The ERG commenced ten minutes after administration of anesthetic. Standardised flashes of light were presented to the mouse in a Ganzfeld bowl to ensure uniform retinal illumination. The ERG responses were recorded simultaneously from both eyes by means of gold wire electrodes (Roland Consulting Gmbh) using Vidisic (Dr Mann Pharma, Germany) as a conducting agent and to maintain corneal hydration. The eye was maintained in a proposed position throughout the examination by means of a small plastic band placed behind the globe. Reference and ground electrodes were positioned subcutaneously, approximately 1 mm from the temporal canthus and anterior to the tail respectively. Body temperature was maintained at 37° C. using a heating device controlled by a rectal temperature probe. Responses were analysed using a RetiScan RetiPort electrophysiology unit (Roland Consulting Gmbh). The protocol was based on that approved by the International Clinical Standards Committee for human electroretinography.

In another data set the test system is C57/Bl6 mice. The data set can be described thus: Behavioural output after TRH injection in claudin-5 suppressed mice. The class given is in vivo. The protocol:
The protocol of Example 1 was followed to produce transiently claudin-5 suppressed mice. 48 hours post-delivery of siRNA targeting claudin-5 or a non-targeting siRNA, a 200 μl of a solution containing 20 mg/kg Thyrotropin Releasing Hormone (TRH) was injected to the claudin-5 suppressed mice. TRH was injected in the tail vein and immediately, the behavioural output of mice was assessed by filming them in a clear Perspex box.

[3] abbreviates: 48 hours post injection, vs non-targeting siRNA.

Entries after “also recorded” stand apart in the source; their conditions may differ.

Regarding “occludin siRNA (3): siRNA, target CAAAUUAUCGCACAUCAAG; sense GAACUACACGCUAUUAAACUU, anti-sense GUUUAAUAGCGUGUAGUUCUU (SEQ ID NO: 19, 20) (listed as RNA, chemistry not given here)”, in the data set with occludin [1], the “occludin staining pattern in brain microvasculature” value (“occludin staining pattern” below) was “returned to levels similar to those observed in the non-targeting controls”. The “albumin extravasation, immunohistochemistry in brain vibratome sections” value (from here on “albumin extravasation”) is “extravascular albumin” with BBB and “albumin deposition occurred” in the data set on BBB (listed as occludin siRNA 3). Moreover, the “passage of mouse immunoglobulins (IgG) into the brain” value with BBB is given as “no extravasation of immunoglobulins”.
With “CLDN12 siRNA (4): siRNA, target GGUCUUUACCUUUGACUAU; strands AAUCUUUACCUUUGACUAUUU and AUAGUCAAAGGUAAAGAUUUU (SEQ ID No. 30, 31) (listed as RNA, chemistry not given here)”, the “claudin-12 expression at the microvessels of the brain, staining” value with claudin-12 is reported as “decreased”.
With “claudin-1 siRNA (4): siRNA, target UUUCAGGUCUGGCGACAUU; sense UUACAGCGGUCUGGACUUUUU, anti-sense AAAGUCCAGACCGCUGUAAUU (SEQ ID NO: 13, 14) (listed as RNA, chemistry not given here)”, the “claudin-1 expression, Western blot” value in the data set with claudin-1 (24 hours post-injection) is reported as “decreased”; with claudin-1 (48 hours post-injection), “suppression was only evident”.
For “occludin siRNA (2): siRNA, target GAUAUUACUUGAUCGUGAU; sense UAGUGCUAGUUCAUUAUAGUU, anti-sense CUAUAAUGAACUAGCACUAUU (SEQ ID NO: 17, 18) (listed as RNA, chemistry not given here)”, in the data set with occludin [2] (setting [3]), the “occludin expression, Western blot” value is “significantly decreased”. Also, the “occludin staining pattern” value in the data set on occludin [1] is given as “discontinuous pattern of staining was also evident”.
Take “occludin siRNA (1): siRNA, target GUUAUAAGAUCUGGAAUGU; sense UGUAAGGUCUAGAAUAUUGUU, anti-sense CAAUAUUCUAGACCUUACAUU (SEQ ID NO: 15, 16) (listed as RNA, chemistry not given here)”: the “occludin expression, Western blot” value with occludin [2] (setting [3]) is reported as “significantly decreased”. Also, the “occludin staining pattern” value with occludin [1] is given as “discontinuous pattern of staining was also evident”.
Consider “occludin siRNA (4): siRNA, target AGAUGGAUCGGUAUGAUAA; sense AAUAGUAUGGCUAGGUAGAUU, anti-sense UCUACCUAGCCAUACUAUUUU (SEQ ID NO: 21, 22) (listed as RNA, chemistry not given here)”, for which, in the data set with occludin [2] (24 hours post injection), the “occludin expression, Western blot” value was “decrease”. Moreover, the “occludin staining pattern” value in the data set with occludin [1] is “returned to levels similar to those observed in the non-targeting controls”. Besides, in the data set on BBB, the “albumin extravasation” value was “extravascular albumin” and the “passage of mouse immunoglobulins (IgG) into the brain” value is “no extravasation of immunoglobulins”. Moreover, in the data set with BBB (listed as occludin siRNA 4), the “albumin extravasation” value was “albumin deposition occurred”.
As for “claudin-1 siRNA (2): siRNA, target GAACAGUACUUUGCAGGCA; sense ACGGACGUUUCAUGACAAGUU, anti-sense CUUGUCAUGAAACGUCCGUUU (SEQ ID NO: 11, 12) (listed as RNA, chemistry not given here)”, in the data set on claudin-1 (24 hours post-injection), the “claudin-1 expression, Western blot” value is listed as “decreased”.
For `Nc1nc2c(ncn2[C@@H]2O[C@H](COP(=O)(O)OP(=O)(O)OP(=O)(O)O)[C@@H](O)[C@H]2O)c(=O)[nH]1` [GTP], the “ERG rod response b-wave, left eye” value in the data set with IMPDH−/− mice (11 month old IMPDH−/− mouse, after suppression of claudin-5 and GTP i.p., 2.48 uV before) worked out at 121 uV. Besides, in the data set on IMPDH−/− mice (11 month old IMPDH−/− mouse, after suppression of claudin-5 and GTP i.p., 50.8 uV before), the “ERG rod response b-wave, right eye” value was 193 uV. Moreover, the ERG rod tracings entry in the data set on IMPDH−/− mice (IMPDH−/− mice, after suppression of claudin-5 and GTP injection) is on record as “increase significantly”.
As to `NC(=O)[C@@H]1CCCN1C(=O)[C@H](Cc1cnc[nH]1)NC(=O)[C@@H]1CCC(=O)N1` [TRH, Thyrotropin Releasing Hormone], the “duration of cessation of mobility relative to non-targeting control mice” value in the data set on C57/Bl6 mice (20 mg/kg TRH tail vein, 48 hours post delivery of siRNA targeting claudin-5) is given as at most 5 times. Besides, in the data set on C57/Bl6 mice (20 mg/kg TRH, 48 hours post delivery of siRNA targeting claudin-5), the “mobility / length of time mice remain immobile” value is “significant cessation of mobility; also recorded: distinct increase in the length of time”. The “delivery of TRH (359.5 Da) across the BBB” value in the data set on C57/Bl6 mice (BBB opened with siRNA targeting claudin-5) is “significantly enhanced”.
On to “CLDN12 siRNA (3): siRNA, target GUAACACGGCCUUCAAUUC; strands GUAACACGGCCUUCAAUUCUU and GAAUUGAAGGCCGUGUUACUU (SEQ ID No. 28, 29) (listed as RNA, chemistry not given here)”, for which the “claudin-12 expression at the microvessels of the brain, staining” value in the data set on claudin-12 is on record as “decreased”.
As for “claudin-1 siRNA (1): siRNA, target GCAAAGCACCGGGCAGAUA; sense AUAGACGGGCCACGAAACGUU, anti-sense CGUUUCGUGGCCCGUCUAUUU (SEQ ID NO: 9, 10) (listed as RNA, chemistry not given here)”, the “claudin-1 expression, Western blot” value is listed as “not evident” in the data set with claudin-1 (24 hours post-injection) and “significantly decrease claudin-1 expression” in the data set with claudin-1 (48 hours post-injection).
